Columns and labels:
[1] = system: SK-GT-4 (Esophageal Adenocarcinoma); test: Bliss excess, mean over the matrix (fraction); higher = more synergy
How it was run: (§1)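 Cell lines grown in DMEM/F12 or RPMI with 10% FBS were plated in 1536-well plates and held 24 hours at 37°C, 5% CO2 before 72 hours of exposure to two-drug dose matrices, with DMSO typically at 0.2%. CellTiter-Glo 2.0 luminescence gave viability, which was converted to inhibition. Vehicle wells were set to 0 and blank wells to 1. Combination Emax is the second-highest inhibition in the matrix, and Bliss excess is the observed combination effect minus the expected EA + EB − EA·EB, where EA and EB are the single-agent effects.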

[2] = system: 8505C (Thyroid Gland Carcinoma); test: combination Emax (second highest fraction inhibited in the dose matrix, 72 h); higher = more inhibition; extreme values may be limits of the assay
How it was run: as §1

[3] = system: CHSA8926 (Chondrosarcoma); test: as above
How it was run: as §1

[4] = system: COR-L279 (Small Cell Lung Carcinoma); test: as above
How it was run: as §1

[5] = system: DMS-114 (Small Cell Lung Carcinoma); test: as above
How it was run: as §1

[6] = system: ESO51 (Esophageal Adenocarcinoma); test: as above
How it was run: as §1

[7] = system: HCC1187 (Breast Carcinoma); test: as above
How it was run: as §1

[8] = system: IM-95 (Gastric Carcinoma); test: as above
How it was run: as §1

[9] = system: KP-3 (Pancreatic Carcinoma); test: as above
How it was run: as §1

[10] = system: KY821 (Acute Myeloid Leukemia); test: as above
How it was run: as §1

[11] = system: MN-60 (B-Lymphoblastic Leukemia); test: as above
How it was run: as §1

[12] = system: NCI-H520 (Squamous Cell Lung Carcinoma); test: as above
How it was run: as §1

[13] = system: NCI-H661 (Non-Small Cell Lung Carcinoma); test: as above
How it was run: as §1

[14] = system: PC-3 (Prostate Carcinoma); test: as above
How it was run: as §1

[15] = system: SK-GT-4 (Esophageal Adenocarcinoma); test: as above
How it was run: as §1

[16] = system: SNU-398 (Hepatocellular Carcinoma); test: as above
How it was run: as §1

[17] = system: ST486 (Burkitt's Lymphoma); test: as above
How it was run: as §1

[18] = system: SU-DHL-5 (B-Cell Non-Hodgkin's Lymphoma); test: as above
How it was run: as §1

[19] = system: SUP-B15 (B-Lymphoblastic Leukemia); test: as above
How it was run: as §1

[20] = system: T-T (Esophageal Squamous Cell Carcinoma); test: as above
How it was run: as §1
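Throughout, for Bliss excess, mean over the matrix: after 72 h of two-drug dosing.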

Structure (SMILES) | Bliss excess [1] | combination Emax [2] | combination Emax [3] | combination Emax [4] | combination Emax [5] | combination Emax [6] | combination Emax [7] | combination Emax [8] | combination Emax [9] | combination Emax [10] | combination Emax [11] | combination Emax [12] | combination Emax [13] | combination Emax [14] | combination Emax [15] | combination Emax [16] | combination Emax [17] | combination Emax [18] | combination Emax [19] | combination Emax [20]
Cc1nc(Nc2ncc(C(=O)Nc3c(C)cccc3Cl)s2)cc(N2CCN(CCO)CC2)n1 [Dasatinib] + CC(=O)Nc1cccc(-n2c(=O)n(C3CC3)c(=O)c3c(Nc4ccc(I)cc4F)n(C)c(=O)c(C)c32)c1 [Trametinib] (first compound max 2 µM, 7x7, partner max 1 µM) | -0.0415 | 0.628 | 0.823 | 0.254 | 0.326 | 0.949 | 0.137 | 0.288 | 0.61 | 0.691 | 0.27 | 0.233 | 0.502 | 0.243 | 0.791 | 0.501 | 0.611 | 1 | 0.952 | 0.5
NC1(C(=O)N[C@@H](CCO)c2ccc(Cl)cc2)CCN(c2ncnc3[nH]ccc23)CC1 [Capivasertib] + CCN(CCO)CCCOc1ccc2c(Nc3cc(CC(=O)Nc4cccc(F)c4)[nH]n3)ncnc2c1 [AZD2811] (first compound max 10 µM, 7x7, partner max 1 µM) | -0.016 | 0.304 | 0.46 | 0.935 | 0.456 | 0.248 | 0.833 | 0.427 | 0.284 | 0.613 | 0.336 | 0.688 | 0.36 | 0.401 | 0.621 | 0.542 | 0.834 | 1 | 0.929 | 0.331
CN(CCO)CC[C@H](CSc1ccccc1)Nc1ccc(S(=O)(=O)NC(=O)c2ccc(N3CCC([C@@H](O)c4ccccc4-c4ccc(Cl)cc4)CC3)cc2)cc1S(=O)(=O)C(F)(F)F [AZD4320] + CN(C)CCCOc1ccc(-c2ccc3ncc4c(c3c2)n(C2CCOCC2)c(=O)n4C)cn1 [AZD0156] (first compound max 1 µM, 7x7, partner max 1 µM) | -0.067 | 0.174 | 0.46 | 0.983 | 0.12 | 0.193 | 0.154 | 0.69 | 0.0528 | 1 | 0.263 | 0.474 | 0.0831 | 0.241 | 0.188 | 0.191 | 0.911 | 0.512 | 1 | 0.158
NC1(C(=O)N[C@@H](CCO)c2ccc(Cl)cc2)CCN(c2ncnc3[nH]ccc23)CC1 [Capivasertib] + Cn1cnc2c(F)c(Nc3ccc(Br)cc3Cl)c(C(=O)NOCCO)cc21 [Selumetinib] (first compound max 10 µM, 7x7, partner max 10 µM) | -0.0373 | 0.5 | 0.48 | 0.551 | 0.456 | 0.624 | 0.296 | 0.502 | 0.417 | 0.891 | 0.188 | 0.548 | 0.427 | 0.258 | 0.767 | 0.472 | 0.559 | 1 | 0.805 | 0.429
COc1nnc2ccc(N3CCC(c4ccc(OCCN5CCN(C)C(=O)[C@H]5C)cc4)CC3)nn12 [AZD5153] + Cn1cnc2c(F)c(Nc3ccc(Br)cc3Cl)c(C(=O)NOCCO)cc21 [Selumetinib] (first compound max 1 µM, 7x7, partner max 10 µM) | -0.0158 | 0.593 | 0.442 | 0.682 | 0.614 | 0.901 | 0.383 | 0.564 | 0.338 | 1 | 0.78 | 0.61 | 0.305 | 0.299 | 0.651 | 0.556 | 0.994 | 1 | 1 | 0.633
CCN(CCO)CCCOc1ccc2c(Nc3cc(CC(=O)Nc4cccc(F)c4)[nH]n3)ncnc2c1 [AZD2811] + O=C(c1cc(Cc2n[nH]c(=O)c3ccccc23)ccc1F)N1CCN(C(=O)C2CC2)CC1 [Olaparib] (first compound max 1 µM, 7x7, partner max 10 µM) | 0.0123 | 0.212 | 0.3 | 0.945 | 0.177 | 0.118 | 0.824 | 0.362 | 0.144 | 0.455 | 0.301 | 0.345 | 0.155 | 0.179 | 0.223 | 0.365 | 0.856 | 1 | 0.976 | 0.212
CN(C)CCCOc1ccc(-c2ccc3ncc4c(c3c2)n(C2CCOCC2)c(=O)n4C)cn1 [AZD0156] + C[C@@H]1COCCN1C2=NC(=NC(=C2)C3(CC3)[S@](=N)(=O)C)C4=C5C=CNC5=NC=C4 [AZD6738] (first compound max 1 µM, 7x7, partner max 10 µM) | -0.0006 | 0.24 | 0.336 | 0.694 | 0.515 | 0.773 | 0.472 | 0.339 | 0.398 | 0.966 | 0.402 | 0.682 | 0.486 | 0.484 | 0.661 | 0.462 | 0.948 | 1 | 0.879 | 0.659
NC1(C(=O)N[C@@H](CCO)c2ccc(Cl)cc2)CCN(c2ncnc3[nH]ccc23)CC1 [Capivasertib] + COc1nnc2ccc(N3CCC(c4ccc(OCCN5CCN(C)C(=O)[C@H]5C)cc4)CC3)nn12 [AZD5153] (first compound max 10 µM, 7x7, partner max 1 µM) | -0.0204 | 0.405 | 0.48 | 1 | 0.529 | 0.622 | 0.309 | 0.562 | 0.296 | 1 | 0.848 | 0.806 | 0.454 | 0.45 | 0.758 | 0.565 | 0.91 | 1 | 1 | 0.527
COc1nnc2ccc(N3CCC(c4ccc(OCCN5CCN(C)C(=O)[C@H]5C)cc4)CC3)nn12 [AZD5153] + Cc1c2c(nn1C)CSCc1cc(n(C)n1)CSc1cc(c3ccccc3c1)OCCCc1c(C(=O)O)n(C)c3c-2c(Cl)ccc13 [AZD5991] (first compound max 1 µM, 7x7, partner max 1 µM) | -0.0304 | 0.475 | 0.651 | 0.982 | 1 | 0.708 | 1 | 0.798 | 0.275 | 1 | 0.719 | 0.744 | 0.891 | 0.376 | 0.53 | 1 | 0.978 | 1 | 1 | 0.958
CC1(C)CCC(CN2CCN(c3ccc(C(=O)NS(=O)(=O)c4ccc(NCC5CCOCC5)c([N+](=O)[O-])c4)c(Oc4cnc5[nH]ccc5c4)c3)CC2)=C(c2ccc(Cl)cc2)C1 [Venetoclax] + CN(C)CCCOc1ccc(-c2ccc3ncc4c(c3c2)n(C2CCOCC2)c(=O)n4C)cn1 [AZD0156] (first compound max 1 µM, 7x7, partner max 1 µM) | -0.0544 | 0.2 | 0.212 | 0.522 | 0.245 | 0.147 | 0.173 | 0.19 | 0.146 | 0.926 | 0.285 | 0.354 | 0.122 | 0.21 | 0.392 | 0.234 | 0.77 | 0.455 | 1 | 0.204
COc1nnc2ccc(N3CCC(c4ccc(OCCN5CCN(C)C(=O)[C@H]5C)cc4)CC3)nn12 [AZD5153] + CC1(C)CCC(CN2CCN(c3ccc(C(=O)NS(=O)(=O)c4ccc(NCC5CCOCC5)c([N+](=O)[O-])c4)c(Oc4cnc5[nH]ccc5c4)c3)CC2)=C(c2ccc(Cl)cc2)C1 [Venetoclax] (first compound max 1 µM, 7x7, partner max 1 µM) | -0.0444 | 0.419 | 0.509 | 0.663 | 0.607 | 0.581 | 0.24 | 0.333 | 0.21 | 1 | 0.692 | 0.569 | 0.264 | 0.366 | 0.484 | 0.447 | 0.929 | 0.978 | 1 | 0.55
CC1(C)CCC(CN2CCN(c3ccc(C(=O)NS(=O)(=O)c4ccc(NCC5CCOCC5)c([N+](=O)[O-])c4)c(Oc4cnc5[nH]ccc5c4)c3)CC2)=C(c2ccc(Cl)cc2)C1 [Venetoclax] + C[C@@H]1COCCN1C2=NC(=NC(=C2)C3(CC3)[S@](=N)(=O)C)C4=C5C=CNC5=NC=C4 [AZD6738] (first compound max 1 µM, 7x7, partner max 10 µM) | -0.0364 | 0.482 | 0.469 | 0.833 | 0.564 | 0.82 | 0.501 | 0.169 | 0.323 | 1 | 0.456 | 0.654 | 0.654 | 0.517 | 0.589 | 0.673 | 0.861 | 1 | 1 | 0.485

Reference: the supplement of paper PMC11061612
